From US20240109864A1, “SUBSTITUTED PYRAZOLYL PIPERIDINE CARBOXYLIC ACIDS” (BAYER AKTIENGESELLSCHAFT, priority 2020, published 2024) come the findings set out here.

As a reminder, the EC50 is the concentration that produces a half-maximal response.

Where a name gives a salt, the structure may show the parent alone.

The target in this assay is T1, recombinant guanylate cyclase reporter cell line (Rattus norvegicus, UniProt P20595).
T1 construct: expressed in transfected cells
T1 sequence (P20595 1-619): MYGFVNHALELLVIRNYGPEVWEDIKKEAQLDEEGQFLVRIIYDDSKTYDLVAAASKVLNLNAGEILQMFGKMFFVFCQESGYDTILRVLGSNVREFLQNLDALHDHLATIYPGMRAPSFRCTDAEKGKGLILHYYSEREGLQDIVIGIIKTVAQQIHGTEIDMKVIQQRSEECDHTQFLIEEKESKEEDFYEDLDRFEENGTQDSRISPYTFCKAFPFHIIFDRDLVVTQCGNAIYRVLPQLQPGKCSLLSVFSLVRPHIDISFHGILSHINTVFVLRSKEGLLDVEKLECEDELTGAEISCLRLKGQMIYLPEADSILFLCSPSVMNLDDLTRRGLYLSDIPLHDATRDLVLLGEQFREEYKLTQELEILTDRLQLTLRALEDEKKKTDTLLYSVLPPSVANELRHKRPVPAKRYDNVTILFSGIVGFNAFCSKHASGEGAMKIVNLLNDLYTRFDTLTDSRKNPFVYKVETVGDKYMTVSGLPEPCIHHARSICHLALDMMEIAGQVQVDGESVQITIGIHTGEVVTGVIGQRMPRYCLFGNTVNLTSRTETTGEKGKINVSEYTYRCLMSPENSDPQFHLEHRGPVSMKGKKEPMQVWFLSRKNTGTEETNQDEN
T1 sequence (P19686 1-690 partner): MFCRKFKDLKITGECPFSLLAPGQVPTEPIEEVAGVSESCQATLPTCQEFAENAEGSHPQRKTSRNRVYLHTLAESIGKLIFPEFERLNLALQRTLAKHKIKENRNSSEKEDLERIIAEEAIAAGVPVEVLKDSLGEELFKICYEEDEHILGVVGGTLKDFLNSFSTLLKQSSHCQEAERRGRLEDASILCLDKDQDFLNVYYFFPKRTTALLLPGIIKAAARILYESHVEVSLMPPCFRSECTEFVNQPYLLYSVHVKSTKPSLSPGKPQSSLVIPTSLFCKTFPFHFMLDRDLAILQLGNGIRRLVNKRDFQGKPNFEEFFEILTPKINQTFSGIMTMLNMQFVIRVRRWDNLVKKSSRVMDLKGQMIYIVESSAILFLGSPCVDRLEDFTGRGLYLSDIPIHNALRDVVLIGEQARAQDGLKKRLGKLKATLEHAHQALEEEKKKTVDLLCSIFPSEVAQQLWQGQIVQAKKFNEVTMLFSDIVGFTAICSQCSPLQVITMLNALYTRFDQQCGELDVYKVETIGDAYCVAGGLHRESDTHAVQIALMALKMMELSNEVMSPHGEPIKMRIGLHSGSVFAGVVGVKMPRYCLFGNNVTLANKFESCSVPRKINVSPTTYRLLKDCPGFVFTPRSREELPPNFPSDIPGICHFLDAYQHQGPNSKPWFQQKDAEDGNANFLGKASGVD
Nature of the assay: Effect on a recombinant guanylate cyclase reporter cell line. In kind it is cell-based. As to conditions: in some cases mean values from individual determinations; for MEC: MEC = minimum effective concentration; for EC50: half maximal effective concentration. The procedure:
The cellular activity of the compounds according to the invention was determined using a recombinant guanylate cyclase reporter cell line, as described in F. Wunder et al., Anal. Biochem. 339, 104-112 (2005).

For the compound `O=C(O)c1cnn(C2CCCN(c3cc(Cl)ccc3-c3ccc(N4CCN(CC(F)(F)F)CC4)nc3)C2)c1C(F)(F)F` (single isomer, unassigned) [Example 74, 1-[1-[5-Chloro-2-[6-[4-(2,2,2-trifluoroethyl)piperazin-1-yl]-3-pyridyl]phenyl]-3-piperidyl]-5-(trifluoromethyl)pyrazole-4-carboxylic acid hydrochloride], the EC50 is 10.5 nM. Besides, the MEC (hydrochloride) stood at 1.0 nM.
Turning to `CCNC(=O)N1CCN(c2ccc(-c3ccc(Cl)cc3N3CCCC(n4ncc(C(=O)O)c4C(F)(F)F)C3)cc2)CC1` (single isomer, unassigned) [Example 66, 1-[1-[5-Chloro-2-[4-[4-(ethylcarbamoyl)piperazin-1-yl]phenyl]phenyl]-3-piperidyl]-5-(trifluoromethyl)pyrazole-4-carboxylic acid], the MEC is listed as 3.0 nM and the EC50 turned out to be 28.5 nM.
For `O=C(O)c1cnn(C2CCCN(c3cc(Cl)ccc3-c3ccc(N4CCN(C[C@@H]5C[C@@H]5F)CC4)cc3)C2)c1C(F)(F)F` (single isomer, unassigned) [Example 8, hydrochloride], the concentration giving a half-maximal response (EC50) amounted to 53 nM. Under “hydrochloride”, the MEC is 10.0 nM.
`O=C(O)c1cnn(C2CCCN(c3cc(Cl)ccc3-c3ccc(N4CCN(CC5CCC5)CC4)cc3)C2)c1C(F)(F)F` (single isomer, unassigned) [Example 19, 1-[1-[5-Chloro-2-[4-[4-(cyclobutylmethyl)piperazin-1-yl]phenyl]phenyl]-3-piperidyl]-5-(trifluoromethyl)pyrazole-4-carboxylic acid hydrochloride]: the MEC is on record as 3.0 nM and the EC50 came to 26.5 nM.
For `O=C(O)c1cnn(C2CCCN(c3cc(Cl)ccc3-c3ccc(N4CCN(CC(F)(F)F)CC4)cc3)C2)c1C(F)(F)F` (single isomer, unassigned) [Example 15, 1-[1-[5-Chloro-2-[4-[4-(2,2,2-trifluoroethyl)piperazin-1-yl]phenyl]phenyl]-3-piperidyl]-5-(trifluoromethyl)pyrazole-4-carboxylic acid], the MEC is reported as 0.6 nM.
Regarding `N#CCCN1CCN(c2ccc(-c3ccc(Cl)cc3N3CCCC(n4ncc(C(=O)O)c4C(F)(F)F)C3)cc2)CC1` (single isomer, unassigned) [Example 5, 1-[1-[5-Chloro-2-[4-[4-(2-cyanoethyl)piperazin-1-yl]phenyl]phenyl]-3-piperidyl]-5-(trifluoromethyl)pyrazole-4-carboxylic acid], the MEC was found to be 1.0 nM and the EC50 came out at 4.8 nM.
Regarding `O=C(O)c1cnn(C2CCCN(c3cc(Cl)ccc3-c3ccc(N4CCN(C(=O)C5CC5F)CC4)cc3)C2)c1C(F)(F)F` (single isomer, unassigned) [Example 44, 1-[1-[5-Chloro-2-[4-[4-(2-fluorocyclopropanecarbonyl)piperazin-1-yl]phenyl]phenyl]-3-piperidyl]-5-(trifluoromethyl)pyrazole-4-carboxylic acid], the MEC is 10.0 nM and the EC50 is 34.5 nM.
`O=C(O)c1cnn(C2CCCN(c3cc(Cl)ccc3-c3ccc(N4CCN(CC5CC(F)(F)C5)CC4)cc3)C2)c1C(F)(F)F` (single isomer, unassigned) [Example 21, 1-[1-[5-Chloro-2-[4-[4-[(3,3-difluorocyclobutyl)methyl]piperazin-1-yl]phenyl]phenyl]-3-piperidyl]-5-(trifluoromethyl)pyrazole-4-carboxylic acid hydrochloride]: the EC50 was found to be 27 nM. For the setting “hydrochloride”, the MEC turned out to be 3.0 nM.
Take `O=C(O)c1cnn(C2CCCN(c3cc(Cl)ccc3-c3ccc(N4CCN(C(=O)OCC5CCC5)CC4)cc3)C2)c1C(F)(F)F` (single isomer, unassigned) [Example 61, 1-[1-[5-Chloro-2-[4-[4-(cyclobutylmethoxycarbonyl)piperazin-1-yl]phenyl]phenyl]-3-piperidyl]-5-(trifluoromethyl)pyrazole-4-carboxylic acid]: the MEC amounted to 3.0 nM and the EC50 was 21 nM.
On the same counts, the results for `O=C(O)c1cnn(C2CCCN(c3cc(Cl)ccc3-c3ccc(N4CCN(CC5C[C@@H]5F)CC4)cc3)C2)c1C(F)(F)F` (single isomer, unassigned) [Example 27, 1-[1-[5-Chloro-2-[4-[4-[[2-fluorocyclopropyl]methyl]piperazin-1-yl]phenyl]phenyl]-3-piperidyl]-5-(trifluoromethyl)pyrazole-4-carboxylic acid hydrochloride] are 3.0 nM and 15 nM.
On to `O=C(O)c1cnn(C2CCCN(c3cc(Cl)ccc3-c3ccc(N4CCN(C(=O)C5CC(F)(F)C5)CC4)cc3)C2)c1C(F)(F)F` (single isomer, unassigned) [Example 50, 1-[1-[5-Chloro-2-[4-[4-(3,3-difluorocyclobutanecarbonyl)piperazin-1-yl]phenyl]phenyl]-3-piperidyl]-5-(trifluoromethyl)pyrazole-4-carboxylic acid], for which the MEC is 10.0 nM and the EC50 amounted to 47.5 nM.
On the same counts, the results for `CCC(=O)N1CCC(c2ccc(-c3ccc(Cl)cc3N3CCCC(n4ncc(C(=O)O)c4C(F)(F)F)C3)cc2)CC1` (single isomer, unassigned) [Example 82, 1-[1-[5-Chloro-2-[4-(1-propanoyl-4-piperidyl)phenyl]phenyl]-3-piperidyl]-5-(trifluoromethyl)pyrazole-4-carboxylic acid hydrochloride] are 0.3 nM and 3.9 nM.
For `O=C(O)c1cnn(C2CCCN(c3cc(Cl)ccc3-c3ccc(N4CCN(C(=O)C5(F)CC5)CC4)cc3)C2)c1C(F)(F)F` (single isomer, unassigned) [Example 43, 1-[1-[5-Chloro-2-[4-[4-(1-fluorocyclopropanecarbonyl)piperazin-1-yl]phenyl]phenyl]-3-piperidyl]-5-(trifluoromethyl)pyrazole-4-carboxylic acid] the same measures were 1.0 nM and 15.1 nM.
For `O=C(O)c1cnn(C2CCCN(c3cc(Cl)ccc3-c3ccc(N4CCN(CC5CC5)CC4)c(F)c3)C2)c1C(F)(F)F` (single isomer, unassigned) [Example 71, 1-[1-[5-Chloro-2-[4-[4-(cyclopropylmethyl)piperazin-1-yl]-3-fluoro-phenyl]phenyl]-3-piperidyl]-5-(trifluoromethyl)pyrazole-4-carboxylic acid hydrochloride], the MEC stood at 10.0 nM and the EC50 worked out at 69.5 nM.
On the same counts, the results for `CCN1CCN(c2ccc(-c3ccc(Cl)cc3N3CCCC(n4ncc(C(=O)O)c4C(F)(F)F)C3)cc2F)CC1` (single isomer, unassigned) [Example 70, 1-[1-[5-Chloro-2-[4-(4-ethylpiperazin-1-yl)-3-fluoro-phenyl]phenyl]-3-piperidyl]-5-(trifluoromethyl)pyrazole-4-carboxylic acid] are 30.0 nM and 99 nM.
For `O=C(O)c1cnn(C2CCCN(c3cc(Cl)ccc3-c3ccc(N4CCN(C(=O)OCC5CC5)CC4)cc3)C2)c1C(F)(F)F` (single isomer, unassigned) [Example 60, 1-[1-[5-Chloro-2-[4-[4-(cyclopropylmethoxycarbonyl)piperazin-1-yl]phenyl]phenyl]-3-piperidyl]-5-(trifluoromethyl)pyrazole-4-carboxylic acid], the MEC was found to be 10.0 nM and the EC50 was 47.5 nM.
Consider `O=C(O)c1cnn(C2CCCN(c3cc(Cl)ccc3-c3ccc(N4CCN(C(=O)C5CCC5)CC4)cc3)C2)c1C(F)(F)F` (single isomer, unassigned) [Example 49, 1-[1-[5-Chloro-2-[4-[4-(cyclobutanecarbonyl)piperazin-1-yl]phenyl]phenyl]-3-piperidyl]-5-(trifluoromethyl)pyrazole-4-carboxylic acid hydrochloride], for which the MEC came to 1.0 nM and the EC50 is 3.5 nM.
